{"source": "patent US4206207A", "about": "“Use of 4-carboxy-phthalato(1,2-diaminocyclohexane)-platinum (II) and alkali metal salts thereof with cyclophosphamide in alleviating L1210 murine leukemia” (priority 1978, dated 1980)", "key": {"[1]": {"test_system": "adenocarcinoma of the stomach, pancreas, and large bowel", "conditions": "combined FU and radiation vs radiation alone; cited from earlier work"}, "L1210 [2]": {"test_system": "L1210", "test": "In vitro growth inhibition of L1210 cells", "type": "cell-based, murine", "source_text": "(§1) The ID50 refers to the concentration of test compound required to\n(§2) inhibit the growth of either the L1210 or L1210/DDP (NSC119875) resistant"}, "L1210/DDP": {"test_system": "L1210/DDP", "test": "In vitro growth inhibition of L1210/DDP (NSC-119875 resistant) cells", "type": "cell-based, murine", "source_text": "as §1, §2"}, "P388 leukemia": {"test_system": "P388 leukemia", "test": "In vivo activity against P388 leukemia", "conditions": "Days 1,5,9,13, NSC-119875 6.7 mg/kg, NSC-271674 20.0 mg/kg", "source_text": "(§3) Data are expressed as survival in days and as a percentage increase in […]"}, "P388/DDP": {"test_system": "P388/DDP", "test": "In vivo activity against P388/DDP leukemia with acquired resistance to NSC-119875", "conditions": "Days 1,5,9,13, NSC-119875 6.7 mg/kg, NSC-271674 20.0 mg/kg", "source_text": "P388/DDP refers to a tumor line with acquired resistance to NSC119875.\nas §3"}, "B16 melanoma": {"test_system": "B16 melanoma", "test": "Mouse tumor panel: B16 melanoma (ip, survival time)", "type": "in vivo", "conditions": "D1-9", "description": "(§4) NSC-271674 Against a Panel of a Mouse Tumors\n(§5) *Survival time (mean or median) assay\n(§6) Data are expressed as a percentage of the survival time in days or the\n(§7) tumor weights in mg of the treated mice divided by the corresponding\n(§8) values for the control mice. All testing was performed using both platinu\n(§9) compounds in the same experiment. The criteria for activity are as\n(§10) follows: confirmed activity (activity from two separate laboratories) of\n(§11) % T/C of 150 or more for survival systems and 10% or less for tumor weigh\n(§12) inhibition assays. Lower levels of activity such as a % T/C of 125 for\n(§13) survival systems and 42% for tumor weight inhibition assays are considere\n(§14) statistically significant."}, "L1210 [3]": {"test_system": "L1210", "test": "Mouse tumor panel: L1210 (ip, survival time)", "type": "in vivo", "conditions": "D1-9", "description": "as §4, §5, §6, §7, §8, §9, §10, §11, §12, §13, §14"}, "Lewis lung": {"test_system": "Lewis lung", "test": "Mouse tumor panel: Lewis lung (iv, survival time)", "type": "in vivo", "conditions": "D1-9", "description": "as §4, §5, §6, §7, §8, §9, §10, §11, §12, §13, §14"}, "CD8F1 mammary": {"test_system": "CD8F1 mammary", "test": "Mouse tumor panel: CD8F1 mammary (sc, tumor weight inhibition)", "type": "in vivo", "conditions": "Q7DX5", "description": "as §4\n(§15) **Tumor weight inhibition assay.\nas §6, §7, §8, §9, §10, §11, §12, §13, §14"}, "Colon #38": {"test_system": "Colon #38", "test": "Mouse tumor panel: Colon #38 (sc, tumor weight inhibition)", "type": "in vivo", "conditions": "D2,9", "description": "as §4, §15, §6, §7, §8, §9, §10, §11, §12, §13, §14"}, "[4]": {"test_system": "strains of murine leukemia", "test": "Activity against strains of murine leukemia resistant to NSC 119875 (general statement)", "conditions": "mouse, in vivo"}, "[5]": {"test": "Renal Toxicity Screening Protocol, toxicity compared to NSC-119875", "type": "in vivo"}}, "data": [{"smiles": "O=c1[nH]cc(F)c(=O)[nH]1", "note": "[5-FU, 5-fluorouracil]", "values": [{"measurement": "mean survival times (in words)", "setting": "[1]", "result": "significantly increased"}]}, {"smiles": "N.N.[Cl][Pt][Cl]", "note": "[NSC-119875, cisdichlorodiamino platinum II, reference compound]", "values": [{"measurement": "ID50 (concentration required to inhibit the growth of cells by 50 percent)", "setting": "L1210 [2]", "result": 0.05, "unit": "µg/mL"}, {"measurement": "ID50 (concentration required to inhibit the growth of cells by 50 percent)", "setting": "L1210/DDP", "result": 2.50, "unit": "µg/mL"}, {"measurement": "% ILS", "setting": "P388 leukemia", "result": 145, "unit": "%"}, {"measurement": "Survival", "setting": "P388 leukemia", "result": 32.6, "unit": "days"}, {"measurement": "% ILS", "setting": "P388/DDP", "result": 41, "unit": "%"}, {"measurement": "Survival", "setting": "P388/DDP", "result": 15.5, "unit": "days"}, {"measurement": "% T/C (survival time) at optimal dose", "setting": "B16 melanoma; B16 first line, optimal dose NSC-119875 2, NSC-271674 6.25 mg/kg/inj", "result": 193, "unit": "%"}, {"measurement": "% T/C (survival time) at optimal dose", "setting": "B16 melanoma; B16 second line, optimal dose NSC-119875 1, NSC-271674 1.56 mg/kg/inj", "result": 166, "unit": "%"}, {"measurement": "% T/C (survival time) at optimal dose", "setting": "L1210 [3]; L1210 first line, optimal dose NSC-119875 2, NSC-271674 0.78 mg/kg/inj", "result": 151, "unit": "%"}, {"measurement": "% T/C (survival time) at optimal dose", "setting": "L1210 [3]; L1210 second line, optimal dose NSC-119875 2, NSC-271674 1.56 mg/kg/inj", "result": 182, "unit": "%"}, {"measurement": "% T/C (survival time) at optimal dose", "setting": "Lewis lung; Lewis lung first line, optimal dose NSC-119875 2, NSC-271674 3.12 mg/kg/inj", "result": 135, "unit": "%"}, {"measurement": "% T/C (survival time) at optimal dose", "setting": "Lewis lung; Lewis lung second line, optimal dose NSC-119875 2, NSC-271674 6.25 mg/kg/inj", "result": 177, "unit": "%"}, {"measurement": "% T/C (tumor weight) at optimal dose", "setting": "CD8F1 mammary; CD8F1 first line, optimal dose NSC-119875 8, NSC-271674 6.25 mg/kg/inj", "result": 0, "unit": "%"}, {"measurement": "% T/C (tumor weight) at optimal dose", "setting": "CD8F1 mammary; CD8F1 second line, optimal dose NSC-119875 8, NSC-271674 25 mg/kg/inj", "result": 0, "unit": "%"}, {"measurement": "% T/C (tumor weight) at optimal dose", "setting": "Colon #38; Colon #38 first line, optimal dose NSC-119875 8, NSC-271674 12.5 mg/kg/inj", "result": 42, "unit": "%"}, {"measurement": "% T/C (tumor weight) at optimal dose", "setting": "Colon #38; Colon #38 second line, optimal dose NSC-119875 16, NSC-271674 50 mg/kg/inj", "result": 11, "unit": "%"}, {"measurement": "activity against NSC 119875-exhausted strains (in words)", "setting": "[4]", "result": "has exhausted its activity"}]}, {"smiles": "N.N.O=C([O-])C1(C(=O)[O-])CCC1.[Pt+2]", "note": "[NSC-241240, diamine [1,1cyclobutanedicarboxylato (2)0,0']platinum]", "values": [{"measurement": "Body Weight Loss score", "setting": "[5]; relative to NSC-119875", "result": 1}, {"measurement": "Clinical Chemistry - Blood Urea Nitrogen score", "setting": "[5]; relative to NSC-119875", "result": 1}, {"measurement": "Clinical Chemistry - Creatinine score", "setting": "[5]; relative to NSC-119875", "result": 1}, {"measurement": "Clinical Chemistry - Serum Glutamic Pyruvic Transaminase score", "setting": "[5]; relative to NSC-119875", "result": 3}, {"measurement": "Hematology - Hematocrit score", "setting": "[5]; relative to NSC-119875", "result": 4}, {"measurement": "Hematology - White Blood Cell score", "setting": "[5]; relative to NSC-119875", "result": 3}, {"measurement": "Histopathology - Gastrointestinal score", "setting": "[5]; relative to NSC-119875", "result": 1}, {"measurement": "Histopathology - Hematopoietic score", "setting": "[5]; relative to NSC-119875", "result": 5}, {"measurement": "Histopathology - Lymphatic score", "setting": "[5]; relative to NSC-119875", "result": 1}, {"measurement": "Histopathology - Renal score", "setting": "[5]; relative to NSC-119875", "result": 1}, {"measurement": "TOTAL SCORE", "setting": "[5]; sum of the ten scores", "result": 21}]}]}
